From patent US20240174684A1, “INHIBITORS OF cGAS ACTIVITY AS THERAPEUTIC AGENTS” (BELLBROOK LABS, LLC, priority 2021, published 2024)
Converted amounts (≈) assume the structure as drawn. “Also recorded” adds a separate entry of the source. Where two headings read alike, the source gives them in different places.

Tests used:
MDR1 (P-glycoprotein) = assay: MDCK-MDR1 permeability A→B; assay type: in vitro ADME, Canine; settings: dog; MDCK cells expressing human MDR1, A→B; read-out: MDCK-MDR Permeability A→B
Outline: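 Permeability measured apical-to-basolateral in MDCK cells expressing human MDR1, reported as binned ranges in cm/s×10^−6. Metabolic stability determined as half-life in mouse and human hepatocytes, reported as binned ranges in minutes.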

[1] = Metabolic stability in mouse hepatocytes; assay type: in vitro ADME; settings: read-out: Mouse MS Stability t1/2
Procedure: (§1) ADME studies: Compound A and the compounds of the disclosure were tested for aqueous solubility (KSOL), metabolic stability (human and mouse […]) and permeability (Caco-2 and/or MDR1-MDCK cells) to provide an initial indication of oral bioavailability.
(§2) The favorable physicochemical properties are reflected in promising results in in vitro ADME tests. […] Metabolic stability, which was routinely measured with mouse and human hepatocytes, is outstanding, with t, greater than 2 hours for all of the compounds of the disclosure in which it has been measured. Cell permeability was measured using MDCK cells expressing human MDR1 (P-glycoprotein) to assess passive permeability as well as active transport out of the cell. […] Numerous compounds in Table 1 meet these permeability criteria, which is consistent with their design for TPSA <140 Å^2 and increased lipophilicity.
(§3) The MDCK-MDR1 permeability A ->B is shown in Table 2 below, where A represents 5-10 cm/s×10^−6; B represents 1-5 cm/s×10^−6; and C represents <1 cm/ss×10^−6. The metabolic stability half time, in both mouse and human hepatocytes, is also shown in Table 2 below, where A′ represents 100-200 minutes; B′ represents 200-300 minutes; and C′ represents >300 minutes.

[2] = Metabolic stability in human hepatocytes; assay type: in vitro ADME; settings: read-out: Human MS Stability t1/2
Procedure: as §1, §2, §3

[3] = Kinetic aqueous solubility (KSOL) in PBS, pH 7.4; assay type: physicochemical; settings: aqueous buffer, kinetic from dmso stock
Procedure: as §1, §2

cGAS [4] = target: T1, cGAS (Homo sapiens, UniProt Q8N884); assay: Transcreener cGAS enzymatic assay (FP); assay type: biochemical
Outline: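 Human cGAS (30 nm) inhibition, 60 min reactions, FP read-out, standard conditions 100 μM ATP and GTP plus 62.5 nM bp ISD. Also run at 1 mM ATP and GTP (physiological), with 200 μM MnCl2, and with mouse cGAS under standard conditions; IC50 reported.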

[5] = system: IFNβ production in THP-1 cells; assay: IFNβ ELISA in THP-1 cells; assay type: cell-based, human
Outline: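 THP-1 cells stimulated with dsDNA or cGAMP (STING activation bypassing cGAS) in the presence of compound; IFNβ secreted into medium quantified by ELISA. IC50 values reported in potency bins.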

[6] = system: IFN-β production in PBMCs; assay: IFNβ ELISA in human primary PBMCs; assay type: cell-based; settings: PBMC
Outline: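 Human primary PBMCs stimulated with dsDNA or cGAMP to trigger a cGAS/STING-dependent type I IFN response. Secreted IFNβ quantified by ELISA across a dose response to derive IC50 values.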

cGAS [7] = target: T1, cGAS; assay: Cellular thermal shift assay (CETSA) in THP-1 cells; assay type: cell-based; settings: heat treatment 51.5 °C
Procedure: Panel A is an image of a western blot of the stabilization measure; panel B is a bar graph of the stabilization measure. Heat treatment was conducted at 51.5 ° C.
(§4) CETSA was also used to confirm that the compounds are binding to cGAS in cells; THP-1 cells are used for this analysis. Compounds were tested in dose response mode by incubating with cells for 1.5 hours at 37° C., followed by pelleting and re-suspending in PBS, heating to 51.5° C. for 3 min and cooling to room temp. Cells were then lysed, debris, including denatured cGAS, was pelleted and the supernatant was analyzed for soluble cGAS by Western Blot using anti-cGAS primary Ab (Cell Signaling). Band intensity was analyzed using Image J software. Stimulation with cGAMP directly activates STING, circumventing cGAS; this was used to determine if compounds had effects on downstream components of cGAS/STING signaling. The IFN-6 ELISA was used as the primary measure of cellular potency and selectivity (Table 3) and used the reporter gene assays for assessing off-target activity with other pattern recognition receptors.

TLR4 pathway = assay: Reporter gene assay NFKB (TLR4); assay type: cell-based; settings: at concentrations above 25 μM
Procedure: as §4
(§5) The reporter gene assays were used to assess off-target activity with IRF30Luc (RIG-1) or NFKB (TLR4); CellTiter Glo (ATP levels) and Presto Blue (reducing equivalents) were used to assess cytotoxicity; all assays were performed in dose response mode. […] The inventors recently began using human PBMCs to assess cellular potency in a more physiologically relevant context.

[8] = Cytotoxicity, CellTiter Glo (ATP levels) and Presto Blue (reducing equivalents); assay type: cell-based; settings: CellTiter Glo, Presto Blue, dose response
Procedure: as §5

T1 sequence (Q8N884 whole entry): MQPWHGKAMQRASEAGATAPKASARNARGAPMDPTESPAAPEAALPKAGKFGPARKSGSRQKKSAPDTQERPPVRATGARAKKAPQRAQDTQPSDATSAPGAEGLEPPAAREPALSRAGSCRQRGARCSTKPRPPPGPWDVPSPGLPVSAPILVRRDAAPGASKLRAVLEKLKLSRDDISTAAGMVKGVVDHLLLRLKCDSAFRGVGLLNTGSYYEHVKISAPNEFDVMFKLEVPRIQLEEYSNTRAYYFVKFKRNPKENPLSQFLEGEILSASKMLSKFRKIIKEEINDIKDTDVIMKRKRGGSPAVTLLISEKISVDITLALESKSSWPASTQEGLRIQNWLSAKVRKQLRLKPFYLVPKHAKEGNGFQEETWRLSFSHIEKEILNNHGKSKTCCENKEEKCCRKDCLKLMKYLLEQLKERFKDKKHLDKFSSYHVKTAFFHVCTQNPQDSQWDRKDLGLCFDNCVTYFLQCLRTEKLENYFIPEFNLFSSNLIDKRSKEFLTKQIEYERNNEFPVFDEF

## Cc1nc(N2C[C@@H](CC(=O)Nc3ccc(-c4ccccc4)cc3)C[C@H]2C(=O)O)c2oc3ccccc3c2n1 [Compound 5, (2S,4R)-4-(2-([1,1′-biphenyl]-4-ylamino)-2-oxoethyl)-1-(2-methylbenzofuro[3,2-d]pyrimidin-4-yl)pyrrolidine-2-carboxylic acid]
MDR1 (P-glycoprotein)
  Papp A→B: 5 to 10 ×10⁻⁶ cm/s
[1]
  half-life: > 5 h
[2]
  half-life: 1.67 to 3.33 h
[3]
  solubility kinetic: 8 µM (≈ 4.05 µg/mL)
cGAS [4]; high ATP and GTP (1 mM) to mimic physiological conditions, read-out: IC50 FP Physiological
  IC50: 500 to 1000 nM
cGAS [4]; standard conditions: 100 μM ATP and GTP, 62.5 nM bp ISD, 60 minute reactions, read-out: IC50 FP Standard
  IC50: 50 to 100 nM
[5]; Homo sapiens, THP-1 cells
  IC50: < 1000 nM
[5]; cellular assays vs cGAS enzymatic assay at 1 mM ATP/GTP
  Cellular IC50 relative to biochemical IC50: essentially identical
[6]
  IC50: 1000 to 2500 nM
cGAS [7]
  Stabilization of cGAS in cells (CETSA): dose dependent stabilization; also recorded: intracellular target engagement
TLR4 pathway
  Off-target activity with the TLR4 pathway: some off-target activity
[8]
  Concentration showing cytotoxicity: above 25 μM
